Test results as given in patent US20210393503A1, “ORGANIC COMPOUNDS” (GIVAUDAN SA, priority 2017, published 2021).
Where two headings read alike, the source gives them in different places.

Tests used:
[1] = system: Reconstituted Human Oral Epithelium (RHO); experiment: Re-epithelization after injury by TEER (trans epithelial electrical resistance); type: cell-based; details: 24 h after treatment; RHO injured with glass capillary; vs control not treated after injury; FIG. 1
Experimental: Experiments were performed on Reconstituted Human Oral Epithelium (RHO).
(§1) Immediately after the arrival in the laboratory, the RHO was removed from the agarose nutrient solution under a sterile airflow cabin. The inserts were rapidly placed in a 6-well plate previously filled with 1 ml of the maintenance medium at room temperature. The wells were placed in an incubator at 37° C., 5% CO2 and saturated humidity overnight.
On the next day, an injury was performed with a glass capillary.
The RHO samples were then treated with a solution containing hyaluronic acid having low (20-50 kDa), intermediate (100-300 kDa) or high (1,000-1,400 kDa) molecular weight. Untreated RHO was used as a control without treatment.
(§2) The RHO samples for this assessment were prepared according to the procedure of example 1.
24 h after the treatment with hyaluronic acid, the trans epithelial electric resistance (TEER) was measured as follows:
0.5 ml of physiological saline solution was directly applied on the tissue placed in a 6-well plate containing 5 ml of saline solution as well. The two electrodes of a Millicell-ERS Voltohmmeter (range 0-20 kΩ) were placed were placed in two compartments on either side of the tissue, such that the electric flux passed through the tissue. The result of the measurement directly appeared on the display. […]

[2] = system: Reconstituted Human Oral Epithelium (RHO); experiment: Re-epithelization after injury by scanning electronic microscopy; type: cell-based; details: T24h after injury; for tissue repair / wound recovery seen by SEM: low 0.5%, intermediate 0.2%, high 0.2%, magnification 10000x, FIGS. 4-6; for film forming on the tissue surface: high molecular weight 0.2%, FIG. 6
Experimental: Experiments were performed on Reconstituted Human Oral Epithelium (RHO). Immediately after the arrival in the laboratory, the RHO was removed from the agarose nutrient solution under a sterile airflow cabin. The inserts were rapidly placed in a 6-well plate previously filled with 1 ml of the maintenance medium at room temperature. The wells were placed in an incubator at 37° C., 5% CO2 and saturated humidity overnight. On the next day, an injury was performed with a glass capillary. The RHO samples were then treated with a solution containing hyaluronic acid having low (20-50 kDa), intermediate (100-300 kDa) or high (1,000-1,400 kDa) molecular weight. Untreated RHO was used as a control without treatment. The RHO samples for this assessment were prepared according to the procedure of example 1. 24 h after treatment with hyaluronic acid, the samples for scanning electronic microscopy (SEM) were immediately fixed by immersion in 2.5% glutaraldehyde in phosphate buffered saline (PBS) for 24 h, washing in 0.1 M sodium cacodylate buffer, pH 7.4, and then carried out in 1% osmium tetraoxide (OsO4) in the same buffer (2 h at room temperature). The samples were dehydrated in ascending grades of ethanol at room temperature and Hexamethyldisilazane overnight. The samples were placed on pins with carbon tabs, coated with a layer of gold using a Polaron Equipment limited SEM coating unit […], and then transferred to a SEM Zeiss Sigma Electron Microscope for viewing and photography. Magnification of 10000× was performed.

ZO-1 = experiment: Re-epithelization after injury by immunohistochemistry on ZO-1; type: cell-based, human; details: injured RHO, vs injured control; FIG. 7
Experimental: The RHO samples for this assessment were prepared according to the procedure of example 1. At the end of the exposures (at least overnight), the tissue samples were fixed in buffered 10% formalin. Samples were included in paraffin blocks and sections of 5 μm were prepared. These slides were stained with Haematoxilin and Eosin. The used technique allows for visualization of a specific protein or antigen in cells or tissue sections by binding a specific antibody chemically conjugated with a fluorescent dye. The indirect immunofluorescence staining is a procedure, in which a secondary antibody labelled with a fluorochrome is used to recognize a primary antibody. Immunofluorescence staining can be performed on cells fixed on slides and tissue sections. Immunofluorescence stained samples are examined under a fluorescence microscope or confocal microscope. […] ZO-1: Rabbit polyclonal antibody anti-ZO-1 (Invitrogen, 61-7300), diluted at 5 μg/ml for an overnight incubation at 4° C. in 1% bovine serum albumin (BSA) in PBS; and the secondary antibody in Alexa Fluor 555 donkey anti-rabbit (Invitrogen, A31572). The nuclei were stained with (4′,6-diamidino-2-phenylindole) (Dapi). The slices were examined under a Leica DM 2500 FLUO microscope and analyzed by Leica LAS software.

Integrin beta 1 (ITGB1) = experiment: Re-epithelization after injury by immunohistochemistry on Integrin B1; type: cell-based, human; details: injured RHO, vs injured control, FIG. 7
Experimental: as §2
At the end of the exposures (at least overnight), the tissue samples were fixed in buffered 10% formalin. Samples were included in paraffin blocks and sections of 5 μm were prepared. These slides were stained with Haematoxilin and Eosin.
The used technique allows for visualization of a specific protein or antigen in cells or tissue sections by binding a specific antibody chemically conjugated with a fluorescent dye. The indirect immunofluorescence staining is a procedure, in which a secondary antibody labelled with a fluorochrome is used to recognize a primary antibody. Immunofluorescence staining can be performed on cells fixed on slides and tissue sections. Immunofluorescence stained samples are examined under a fluorescence microscope or confocal microscope.
INTEGRIN (ITGB1): Mouse monoclonal antibody anti-Integrin beta 1 (Abcam, ab3167) diluted at 2 μg/ml for a 2 h incubation at room temperature in 1% BSA in PBS; and the secondary antibody in Alexa Fluor 488 goat anti-mouse (Invitrogen, A10680). The nuclei were stained with Dapi.
The slices were examined under a Leica DM 2500 FLUO microscope and analyzed by Leica LAS software.

[3] = system: Reconstituted Human Oral Epithelium (RHO) colonized with S. Aureus; experiment: Biofilm formation by TEER on colonized RHO; type: cell-based
Experimental: as §1, with “medium […]” for “medium”
(§3) The protocol was performed on duplicate tissues for bacterial burden and on single tissue for further morphological analysis (SEM, H&E).
(§4) S. aureus MRSA ATCC 33591 was thawed and cultured in nutrient broth at 37° C., under agitation.
(§5) 30 μL of intermediate molecular weight hyaluronic acid solution (0.2% w/v) or of chlorhexidine (CHL) 0.2% (positive control), respectively, were topically applied to RHO samples, and incubated for 24 h. Then, the product residual volume was removed by a micropipette from the epithelium surface.
The RHO samples were then colonized with S. Aureus bacterial suspensions (O.D. 0.1 about 10^6 UFC/tissue), which was applied topically for 4 h. After 4 h, the remaining S. aureus solution was removed and RHO tissue samples were incubated for 16 h at 37° C., 5% CO2. […]
TEER was measured as described hereafter: 0.5 ml of physiological saline solution was directly applied on the tissue placed in a 6-well plate containing 5 ml of saline solution as well. […]

[4] = system: S. aureus MRSA ATCC 33591; experiment: Biofilm formation by bacterial count on colonized RHO; type: cell-based, Staphylococcus aureus
Experimental: as §1, with “medium […]” for “medium”
as §3, §4, §5
(§6) The RHO samples were then colonized with S. Aureus bacterial suspensions (O.D. 0.1 about 10^6 UFC/tissue), which was applied topically for 4 h. After 4 h, the remaining S. aureus solution was removed and RHO tissue samples were incubated for 16 h at 37° C., 5% CO2.
The samples for this assessment were prepared according to the procedure of example 5.
In order to perform the bacterial count on apical, basolateral and homogenate compartments, the following procedure was used: • For the basolateral compartment: 1 ml of culture medium from each well was sampled. • For the apical compartment, the samples from the TEER measurement according to example 6 were used: Each sample contained 500 μl of physiological saline solution. These samples were moved to a new 6-well plate that had been previously filled with 2 ml/well of saline solution and put in a sonicator bath for 7 minutes at 40 kHz. After sonication, 500 μl of saline solution were sampled for the apical compartment and the RHO tissues were rinsed twice with 200 μl of saline solution. The total amount of solution (900 μl) was then pooled together to obtain the harvested apical compartment. • For the homogenate compartment: a sterile scalpel blade has been used to harvest tissues from the insert and to place them in an Eppendorf tube containing 500 μL of 0.5% Triton X-100 solution prepared in sterile distilled water for at least 10 minutes.
Bacterial counts of the three compartments were performed on Nutrient Agar plates, plating the appropriate 10-fold dilutions (from the not diluted to 10-7) of each compartment suspension (one 10 μl drop for each dilution). After 1 day of incubation at 37° C., the colonies were numbered visually.

[5] = system: S. aureus MRSA ATCC 33591; experiment: Biofilm visualization by scanning electronic microscopy; type: cell-based, Staphylococcus aureus; details: 100-300 kDa, 0.2% w/v, colonization with S. Aureus, after 4 h
Experimental: as §1, with “medium […]” for “medium”
as §3, §4, §5, §6
The samples for this experiment were prepared according to the procedure of example 5.
After treatment, samples for SEM were immediately fixed by immersion in 2.5% gluteraldehyde in PBS. […]

In the case of “hyaluronic acid [low molecular weight hyaluronic acid]”, the “TEER (barrier function) after injury” value [1] is reported as “improved the barrier function after an injury”, the “tissue repair / wound recovery seen by SEM” value [2] is reported as “led to a recovery of the wound” and the “ZO-1 expression (immunofluorescence)” value (ZO-1) is reported as “induced an over-expression”. For the same compound, the “Integrin beta 1 expression (immunofluorescence)” value (Integrin beta 1 (ITGB1)) was “induced an over-expression”.

In the case of “hyaluronic acid [high molecular weight hyaluronic acid]”, the “film forming on the tissue surface” value [2] is reported as “film forming was observed”, the “film forming on the tissue surface” value ([2]; listed as hyaluronic acid of high molecular weight) is reported as “forming a film on the skin surface” and the “tissue repair / wound recovery seen by SEM” value [2] is reported as “significantly less advanced”.

With “hyaluronic acid [intermediate molecular weight hyaluronic acid]” the “TEER (barrier function) after injury” value [1] was “improved the barrier function after an injury”, the “tissue repair / wound recovery seen by SEM” value [2] was “active process of tissue repair” and the “Integrin beta 1 expression (immunofluorescence)” value (Integrin beta 1 (ITGB1); listed as hyaluronic acid of intermediate molecular weight) was “over-expression of integrin beta 1 exclusively”. The “TEER (barrier function) of colonized RHO” value [3] was “did not affect TEER”, the “decrease of the bacterial count, apical compartment” value ([4]; 0.2% w/v applied 24 h before colonization with S. Aureus, FIG. 9) was “about 50%” and the “decrease of the bacterial count, homogenate compartment” value ([4]; 0.2% w/v applied 24 h before colonization with S. Aureus, FIG. 10) was “about 50%”. The “total bacterial count (bacterial proliferation)” value ([4]; summary of examples 5-9) was −50%, the “polysaccharide matrix (biofilm formation) by SEM” value ([5]; FIG. 13) was “No polysaccharide matrix is visible” and the “colonies in cluster by SEM” value ([5]; FIG. 13 vs FIG. 12) was “less colonies are in cluster”.

With `[H]/N=C(\N/C(=N/[H])NCCCCCCNC(=N)NC(=N)Nc1ccc(Cl)cc1)Nc1ccc(Cl)cc1` [CHL, chlorhexidine, reference compound] the “TEER (barrier function) of colonized RHO” value ([3]; 0.2% applied 24 h before colonization with S. Aureus for 4 h, then 16 h incubation, FIG. 8) was “TEER decreased” and the “bacterial count, result in words” value ([4]; 0.2% applied 24 h before colonization with S. Aureus, FIGS. 9 and 10) was “strong bactericidal property”.
